Assay [1] is filed under the species Homo sapiens. Nature of the assay: Inhibition of transglutaminase in human keratinocytes in presence of retinal relative to retinal alone. In kind it is cell-based. The conditions noted are these: concentration not given here.
Assay [2] deals with T1, Lecithin retinol acyltransferase (Bos taurus) (UniProt Q9BGL2).
T1 sequence (whole entry): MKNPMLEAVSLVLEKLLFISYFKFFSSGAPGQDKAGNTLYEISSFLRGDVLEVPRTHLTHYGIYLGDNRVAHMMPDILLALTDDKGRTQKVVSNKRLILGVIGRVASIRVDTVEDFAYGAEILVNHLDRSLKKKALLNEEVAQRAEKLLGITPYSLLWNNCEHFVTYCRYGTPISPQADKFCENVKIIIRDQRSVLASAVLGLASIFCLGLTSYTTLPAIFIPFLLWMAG
The conditions noted are these: at 100 µM.
Description: Inhibition of LRAT in bovine RPE microsomes at 100 uM using retinol substrate in presence of Palmitoyl-CoA incubated for 5 mins by HPLC analysis relative to control

In assay [3] the target is T2, Diacylglycerol O-acyltransferase 1 (Bos taurus) (UniProt Q8MK44).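 Also: ARAT activity in bovine RPE microsomes with retinol as substrate and dilauroyl phosphatidylcholine present, 5 min incubation, HPLC readout, inhibition expressed versus control.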
T2 sequence (whole entry): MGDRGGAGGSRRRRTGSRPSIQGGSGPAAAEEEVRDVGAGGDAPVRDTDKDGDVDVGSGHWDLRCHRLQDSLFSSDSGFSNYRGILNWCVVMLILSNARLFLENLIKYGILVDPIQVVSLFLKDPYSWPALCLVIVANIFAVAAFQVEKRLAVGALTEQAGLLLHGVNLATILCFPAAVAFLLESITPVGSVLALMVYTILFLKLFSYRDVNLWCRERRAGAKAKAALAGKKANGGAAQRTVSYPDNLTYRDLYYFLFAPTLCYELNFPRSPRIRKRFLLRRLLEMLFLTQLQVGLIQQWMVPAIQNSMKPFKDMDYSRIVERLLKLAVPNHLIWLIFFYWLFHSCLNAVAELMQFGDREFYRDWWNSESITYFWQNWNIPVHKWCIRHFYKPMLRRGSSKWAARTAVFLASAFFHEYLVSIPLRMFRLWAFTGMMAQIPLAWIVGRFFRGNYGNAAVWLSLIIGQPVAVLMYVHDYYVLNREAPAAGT
The conditions noted are these: at 100 µM.
Description: Inhibition of ARAT in bovine RPE microsomes at 100 uM using retinol substrate in presence of dilauroyl-phosphatidyl choline incubated for 5 mins by HPLC analysis relative to control

The species entered for assay [4] is Homo sapiens. Nature of the assay: Inhibition of transglutaminase in human keratinocytes assessed as mean transglutaminase activity level at 9.0 10^-3M in presence of 10 uM retinal relative to retinal alone. In kind it is cell-based. Further details: scale not given: the % may be the effect or the level left.
The species entered for assay [5] is Homo sapiens. Nature of the assay: Inhibition of transglutaminase in human keratinocytes assessed as mean transglutaminase activity level at 1.0 10^-3M in presence of 10 uM retinal relative to retinal alone. In kind it is cell-based. Also noted: scale not given: the % may be the effect or the level left.
For assay [6], the species on record is Homo sapiens. Nature of the assay: Inhibition of transglutaminase in human keratinocytes assessed as mean transglutaminase activity level at 8.2 10^-6M in presence of 10 uM retinal relative to retinal alone. In kind it is cell-based. Also noted: scale not given: the % may be the effect or the level left.
The species entered for assay [7] is Homo sapiens.
Description: Inhibition of transglutaminase in human keratinocytes in presence of 10 uM retinal relative to retinal alone
For assay [8], the species on record is Homo sapiens. Put plainly: Inhibition of transglutaminase in human keratinocytes assessed as mean transglutaminase activity level at 3.29 10^-7M in presence of 10 uM retinal relative to retinal alone. Also noted: scale not given: the % may be the effect or the level left. In kind it is cell-based.
For a further assay, the species on record is Rattus norvegicus. Put plainly: Inhibition of retinal reductase in Sprague-Dawley rat liver microsomes at 100 uM using all-trans retinaldehyde and NADPH by HPLC analysis relative to control. On the technique in general: Liver microsomes are vesicles of endoplasmic reticulum, rich in cytochrome P450 enzymes.
Assay [9] is filed under the species Homo sapiens. Put plainly: Inhibition of transglutaminase in human keratinocytes assessed as mean transglutaminase activity level at 3.0 10^-3M in presence of 10 uM retinal relative to retinal alone. In kind it is cell-based. Further details: scale not given: the % may be the effect or the level left.
For assay [10], the species on record is Homo sapiens. Put plainly: Inhibition of transglutaminase in human keratinocytes assessed as mean transglutaminase activity level at 3.73 10^-4M in presence of 10 uM retinal relative to retinal alone. In kind it is cell-based. Also noted: scale not given: the % may be the effect or the level left.
The species named for assay [11] is Homo sapiens. Nature of the assay: Inhibition of transglutaminase in human keratinocytes assessed as mean transglutaminase activity level at 1.23 10^-5M in presence of 10 uM retinal relative to retinal alone. In kind it is cell-based. Also noted: scale not given: the % may be the effect or the level left.
Assay [12] is filed under the species Homo sapiens. Nature of the assay: Inhibition of transglutaminase in human keratinocytes assessed as mean transglutaminase activity level at 4.1 10^-5M in presence of 10 uM retinal relative to retinal alone. Further details: scale not given: the % may be the effect or the level left. In kind it is cell-based.
The species named for assay [13] is Homo sapiens. Nature of the assay: Inhibition of transglutaminase in human keratinocytes assessed as mean transglutaminase activity level at 1.65 10^-7M in presence of 10 uM retinal relative to retinal alone. In kind it is cell-based. Further details: scale not given: the % may be the effect or the level left.
Assay [14] is filed under the species Homo sapiens. Put plainly: Inhibition of transglutaminase in human keratinocytes assessed as mean transglutaminase activity level at 1.1 10^-4M in presence of 10 uM retinal relative to retinal alone. In kind it is cell-based. Also noted: scale not given: the % may be the effect or the level left.
Assay [15] is filed under the species Homo sapiens. Nature of the assay: Inhibition of transglutaminase in human keratinocytes at 1 uM relative to control. In kind it is cell-based.
For assay [16], the species on record is Homo sapiens. Nature of the assay: Inhibition of transglutaminase in human keratinocytes assessed as mean transglutaminase activity level at 3 10^-5M in presence of 10 uM retinal relative to retinal alone. Also noted: scale not given: the % may be the effect or the level left. In kind it is cell-based.
The species named for assay [17] is Homo sapiens. Nature of the assay: Inhibition of transglutaminase in human keratinocytes assessed as mean transglutaminase activity level at 1.1 10^-6M in presence of 10 uM retinal relative to retinal alone. In kind it is cell-based. Also noted: scale not given: the % may be the effect or the level left.
Assay [18] is filed under the species Homo sapiens. Nature of the assay: Inhibition of transglutaminase in human keratinocytes assessed as mean transglutaminase activity level at 1.65 10^-9M in presence of 10 uM retinal relative to retinal alone. In kind it is cell-based. Also noted: scale not given: the % may be the effect or the level left.
For assay [19], the species on record is Homo sapiens. Nature of the assay: Inhibition of transglutaminase in human keratinocytes assessed as mean transglutaminase activity level at 4.1 10^-8M in presence of 10 uM retinal relative to retinal alone. In kind it is cell-based. Further details: scale not given: the % may be the effect or the level left.
The species entered for assay [20] is Homo sapiens. Put plainly: Inhibition of transglutaminase in human keratinocytes assessed as mean transglutaminase activity level at 3.3 10^-6M in presence of 10 uM retinal relative to retinal alone. Also noted: scale not given: the % may be the effect or the level left. In kind it is cell-based.
Assay [21] is filed under the species Homo sapiens. Put plainly: Inhibition of transglutaminase in human keratinocytes assessed as mean transglutaminase activity level at 3.73 10^-7M in presence of 10 uM retinal relative to retinal alone. Further details: scale not given: the % may be the effect or the level left. In kind it is cell-based.
The species named for assay [22] is Homo sapiens. Put plainly: Inhibition of transglutaminase in human keratinocytes assessed as mean transglutaminase activity level at 3.29 10^-9M in presence of 10 uM retinal relative to retinal alone. In kind it is cell-based. Further details: scale not given: the % may be the effect or the level left.
For assay [23], the species on record is Homo sapiens. Put plainly: Inhibition of transglutaminase in human keratinocytes assessed as mean transglutaminase activity level at 8.2 10^-8M in presence of 10 uM retinal relative to retinal alone. In kind it is cell-based. Also noted: scale not given: the % may be the effect or the level left.
The species named for assay [24] is Homo sapiens. Put plainly: Inhibition of transglutaminase in human keratinocytes assessed as mean transglutaminase activity level at 1 10^-5M in presence of 10 uM retinal relative to retinal alone. In kind it is cell-based. Further details: scale not given: the % may be the effect or the level left.
Assay [25] is filed under the species Homo sapiens. Put plainly: Inhibition of transglutaminase in human keratinocytes assessed as mean transglutaminase activity level at 1.23 10^-7M in presence of 10 uM retinal relative to retinal alone. In kind it is cell-based. Also noted: scale not given: the % may be the effect or the level left.

In general, inhibition refers to the share of the control response that was lost under treatment. Take `O=C(NCNC(=O)NC1C(=O)NC(=O)N1CO)NC1C(=O)NC(=O)N1CO` (stereo unspecified): in the assay filed under Homo sapiens [1], the inhibition is 35%.
As for `CCCCCCCCCCCC(=O)NCCO`, the inhibition in the assay filed under Homo sapiens [1] worked out at 11%; in assay [2], 34%; in [3], 13%.
For `CCCCC/C=C\C/C=C\CCCCCCCC(=O)O`, the Activity was -6% in the assay filed under Homo sapiens [4]; -16.4% in the assay listed under Homo sapiens [5]; 146% in the assay filed under Homo sapiens [6]; 60.2% in the assay listed under Homo sapiens [8]; 0.1% in the assay listed under Homo sapiens [9]; 79.2% in the assay filed under Homo sapiens [10]. Besides, the Activity worked out at 62.6% in the assay listed under Homo sapiens [11], 76.8% in the assay filed under Homo sapiens [12], 106% in the assay listed under Homo sapiens [13] and 4.4% in the assay listed under Homo sapiens [14]. The compound also returned an IC20 in the assay filed under Homo sapiens [7] of 8.95 ×10⁻⁵ M. The inhibition in the assay listed under Rattus norvegicus is 62%.
As for `CC1=C(/C=C/C(C)=C/C=C/C(C)=C/C=O)C(C)(C)CCC1`, the inhibition in the assay filed under Homo sapiens [15] is 55%.
Turning to `COc1cc(NS(C)(=O)=O)ccc1Nc1c2ccccc2nc2ccccc12`, the Activity in the assay listed under Homo sapiens [16] is -10%; in the assay filed under Homo sapiens [17], 84%; in the assay filed under Homo sapiens [18], 113%; in the assay filed under Homo sapiens [19] it was 110%; in the assay listed under Homo sapiens [20], 64%; in the assay filed under Homo sapiens [21], 109%. Further, the Activity in the assay filed under Homo sapiens [22] was 92%; in the assay listed under Homo sapiens [23], 131%; in the assay filed under Homo sapiens [24], 1.8%; in the assay filed under Homo sapiens [25], 65%. Moreover, in the assay listed under Homo sapiens [7], the IC20 stood at 3.3 ×10⁻⁶ M. In the assay filed under Rattus norvegicus, this compound had an inhibition of 22%.
For the compound `CC1(C)[C@@H](OC(=O)CCC(=O)O)CC[C@]2(C)[C@H]3C(=O)C=C4[C@@H]5C[C@@](C)(C(=O)O)CC[C@]5(C)CC[C@@]4(C)[C@]3(C)CC[C@@H]12`, the Activity is -7.1% in the assay listed under Homo sapiens [16]; 158% in the assay filed under Homo sapiens [17]; 77.8% in the assay listed under Homo sapiens [18]; 135% in the assay listed under Homo sapiens [19]; 51.7% in the assay listed under Homo sapiens [20]; 126% in the assay filed under Homo sapiens [21]. In addition, the Activity in the assay listed under Homo sapiens [22] was determined as 64%; in the assay filed under Homo sapiens [23], 112%; in the assay listed under Homo sapiens [24], 27.3%; in the assay listed under Homo sapiens [25], 81%. Moreover, the IC20 in the assay filed under Homo sapiens [7] came out at 2 ×10⁻⁷ M. The compound further registered an inhibition in the assay listed under Rattus norvegicus of 26%.

Source of the values: ChEMBL document CHEMBL4420071, “Method for treating skin with retinoids and retinoid boosters” (2013).
